The source of these data is patent publication US12384776B2, “Compounds and uses thereof” (Foghorn Therapeutics Inc., priority 2019, dated 2025).

Where only a bound is given, the exact number is not on record here.

Broadly, the IC50 is the concentration that inhibits the measured activity by half. A lower IC50 goes with inhibition by little substance.

In this test the target is Nanoluciferase-BRD9 fusion protein (3×FLAG-NLuc-BRD9) in SYO-1 cells (Homo sapiens (Human), UniProt Q9H8M2). In words: SYO1 BRD9 NanoLuc degradation assay. Type of test: cell-based. The conditions noted are these: SYO-1 cells, 6 hours, Table 6C. In short, it runs like this: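 Degradation read as loss of NLuc signal after 6 h compound exposure (1 μM top final, 3-fold steps, 10 points, duplicates) in SYO-1 cells stably carrying 3×FLAG-NLuc-BRD9. Signal normalised between DMSO-treated cells and cells given 1 μM of a known BRD9 degrader.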
Sequence of Nanoluciferase-BRD9 fusion protein (3×FLAG-NLuc-BRD9) in SYO-1 cells (Q9H8M2 whole entry, the tested form may be a part): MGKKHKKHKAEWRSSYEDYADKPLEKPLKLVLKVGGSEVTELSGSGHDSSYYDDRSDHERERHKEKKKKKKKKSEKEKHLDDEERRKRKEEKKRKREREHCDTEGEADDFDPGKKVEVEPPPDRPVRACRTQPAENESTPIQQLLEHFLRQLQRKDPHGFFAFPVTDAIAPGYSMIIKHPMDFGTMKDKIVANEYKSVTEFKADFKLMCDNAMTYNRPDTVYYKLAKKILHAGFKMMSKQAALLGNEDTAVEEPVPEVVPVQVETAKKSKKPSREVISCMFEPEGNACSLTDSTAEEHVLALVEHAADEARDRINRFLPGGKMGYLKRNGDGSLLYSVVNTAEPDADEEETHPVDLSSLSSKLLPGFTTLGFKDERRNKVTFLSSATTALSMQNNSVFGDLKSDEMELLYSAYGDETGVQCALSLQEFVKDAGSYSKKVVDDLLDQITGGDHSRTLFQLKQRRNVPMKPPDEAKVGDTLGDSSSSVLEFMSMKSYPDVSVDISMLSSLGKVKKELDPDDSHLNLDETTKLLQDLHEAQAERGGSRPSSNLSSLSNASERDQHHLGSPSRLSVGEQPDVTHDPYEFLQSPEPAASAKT
For the compound `COc1cc(-c2cn(C)c(=O)c3c2CCN(C(=O)NCC(F)F)C3)cc(OC)c1CN1CCN(CCC2CCN(c3ccc4c(c3)CN(C3CCC(=O)NC3=O)C4=O)CC2)CC12CCC2` (centres unmarked) [Compound D322], the half-maximal inhibitory concentration (IC50) is below 10 nM.

As for `[2H]C([2H])([2H])NC(=O)N1CCc2c(-c3cc(OC)c(CN4[C@H](C)CN(CCC5CCN(c6ccc7c(c6)C(=O)N(C6CCC(=O)NC6=O)C7)CC5)C[C@H]4C)c(OC)c3)cn(C)c(=O)c2C1` (some centres unmarked) [Compound D323], the IC50 is below 10 nM.

Compound `[2H]C([2H])([2H])NC(=O)N1CCc2c(-c3cc(OC)c(CN4[C@H](C)CN(CCC5CCN(c6ccc7c(c6)CN(C6CCC(=O)NC6=O)C7=O)CC5)C[C@H]4C)c(OC)c3)cn(C)c(=O)c2C1` (some centres unmarked) [Compound D324] registered a half-maximal inhibitory concentration (IC50) below 10 nM.

`CNC(=O)N1CCc2c(-c3cc(OC)c(CN4[C@H](C)CN(CCC5CCN(c6ccc7c(c6)CN(C6CCC(=O)NC6=O)C7=O)CC5)C[C@H]4C)c(OC)c3)cn(C)c(=O)c2C1` (some centres unmarked) [Compound D325] gave an IC50 below 10 nM.

`CNC(=O)N1CCc2c(-c3cc(OC)c(CN4[C@H](C)CN(CCC5CCN(c6ccc7c(c6)C(=O)N(C6CCC(=O)NC6=O)C7)CC5)C[C@H]4C)c(OC)c3)cn(C)c(=O)c2C1` (some centres unmarked) [Compound D326] gave a concentration for half-maximal inhibition (IC50) below 10 nM.

In turn, `CCc1cc(-c2cn(C)c(=O)c3c2CCN(C(=O)NC)C3)cc(OC)c1CN1CCN(CCC2CCN(c3ccc4c(c3)C(=O)N(C3CCC(=O)NC3=O)C4)CC2)CC1` (centres unmarked) [Compound D327] gave a half-inhibitory concentration (IC50) below 10 nM.

`[2H]C([2H])([2H])n1cc(-c2cc(OC)c(CN3CCN(CCC4CCN(c5ccc6c(c5)C(=O)N(C5CCC(=O)NC5=O)C6=O)CC4)CC3)c(OC)c2)c2c(c1=O)CN(C(=O)NCC(F)F)CC2` (centres unmarked) [Compound D328]: the IC50 was at least 1000 nM.

For the compound `CNC(=O)N1CCc2c(-c3cc(OC)c(CN4CCN(CCC5CCN(c6ccc7c(c6)CN(C6CCC(=O)NC6=O)C7=O)CC5)CC4COC)c(OC)c3)cn(C)c(=O)c2C1` (centres unmarked) [Compound D329], the concentration for half-maximal inhibition (IC50) is below 10 nM.

Consider `CNC(=O)N1CCc2c(-c3cc(OC)c(CN4CCN(CCC5CCN(c6ccc7c(c6)CN(C6CCC(=O)NC6=O)C7=O)CC5(F)F)CC4)c(OC)c3)cn(C)c(=O)c2C1` (centres unmarked) [Compound D330], for which the IC50 is below 10 nM.

Consider `CNC(=O)N1CCc2c(-c3cc(OC)c(C4CN(c5ccc6c(c5)CN(C5CCC(=O)NC5=O)C6=O)C4)c(OC)c3)cn(C)c(=O)c2C1` (centres unmarked) [Compound D331], for which the IC50 was at least 10 nM.

`CNC(=O)N1CCc2c(-c3cc(OC)c(CN4CCN(CCC5CCN(c6ccc7c(c6)C(=O)N(C6CCC(=O)NC6=O)C7)CC5)CC45CCC5)c(OC)c3)cn(C)c(=O)c2C1` (centres unmarked) [Compound D332] gave a half-inhibitory concentration (IC50) below 10 nM.

Consider `COc1cc(-c2cn(C)c(=O)c3c2CCN(C(=O)NCC(F)F)C3)cc(OC)c1CN1CCN(CCC2CCN(c3ccc4c(c3)C(=O)N(C3CCC(=O)NC3=O)C4)CC2)CC12CCC2` (centres unmarked) [Compound D333], for which the IC50 was below 10 nM.

Take `CNC(=O)N1CCc2c(-c3cc(OC)c(CN4CC(C(N5CCC6(CC5)CN(c5ccc7c(c5)C(=O)N(C5CCC(=O)NC5=O)C7)C6)C(F)(F)F)C4)c(OC)c3)cn(C)c(=O)c2C1` (centres unmarked) [Compound D334]: the half-inhibitory concentration (IC50) is below 10 nM.

`COc1cc(-c2cn(C)c(=O)c3c2CCN(C(=O)NCC(F)F)C3)cc(OC)c1CN1CCC(CN2CCC3(CC2)CN(c2ccc4c(c2)C(=O)N(C2CCC(=O)NC2=O)C4)C3)CC1` (centres unmarked) [Compound D336] yielded an IC50 below 10 nM.

In turn, `CNC(=O)N1CCc2c(-c3cc(OC)c(CN4CCN(CCC5CCN(c6ccc7c(c6)C(=O)N(C6CCC(=O)NC6=O)C7=O)CC5)CC4)c(OC)c3)c(C)n(C)c(=O)c2C1` (centres unmarked) [Compound D337] yielded an IC50 of at least 1000 nM.

Regarding `CNC(=O)N1CCc2c(-c3cc(OC)c(CN4CCC(CN5CCC6(CC5)CC(Oc5ccc7c(c5)C(=O)N(C5CCC(=O)NC5=O)C7=O)C6)CC4)c(OC)c3)cn(C(F)F)c(=O)c2C1` (centres unmarked) [Compound D338], the IC50 was below 10 nM.

`CNC(=O)N1CCc2c(-c3cc(OC)c(CN4CCC(CN5CCC6(CN(c7ccc8c(c7)CN(C7CCC(=O)NC7=O)C8=O)C6)C(F)(F)C5)CC4)c(OC)c3)cn(C)c(=O)c2C1` (centres unmarked) [Compound D339] displayed an IC50 below 10 nM.

On to `CNC(=O)N1CCc2c(-c3cc(OC)c(CN4CCN(CCC5CCN(c6ccc7c(c6)C(=O)N(C6CCC(=O)NC6=O)C7)CC5)CC4COC)c(OC)c3)cn(C)c(=O)c2C1` (centres unmarked) [Compound D340], for which the concentration for half-maximal inhibition (IC50) is below 10 nM.

With `[2H]C([2H])([2H])NC(=O)N1CCc2c(-c3cc(OC)c(CN4CCN(CCC5CCN(c6ccc7c(c6)C(=O)N(C6CCC(=O)NC6=O)C7)CC5)CC4)c(OC)c3)cn(C)c(=O)c2C1` (centres unmarked) [Compound D341], the IC50 is below 10 nM.

`CNC(=O)N1CCc2c(-c3cc(OC)c(CN4CCC(CCN5C(C)CC(c6ccc7c(c6)C(=O)N(C6CCC(=O)NC6=O)C7=O)CC5C)CC4)c(OC)c3)cn(C)c(=O)c2C1` (centres unmarked) [Compound D342] gave a half-maximal inhibitory concentration (IC50) below 10 nM.

As to `CNC(=O)N1CCc2c(-c3cc(OC)c(CN4CCC(C(N5CCC6(CC5)CC(Oc5ccc7c(c5)C(=O)N(C5CCC(=O)NC5=O)C7=O)C6)C(F)(F)F)CC4)c(OC)c3)cn(C)c(=O)c2C1` (centres unmarked) [Compound D343], the concentration for half-maximal inhibition (IC50) is at least 1000 nM.

Regarding `COc1cc(-c2cn(C)c(=O)c3c2CCN(C(=O)NCC(F)F)C3)cc(OC)c1CN1CCN(CCC2CCN(c3ccc4c(c3)C(=O)N(C3CCC(=O)NC3=O)C4)CC2)CC1` (centres unmarked) [Compound D344], the IC50 is below 10 nM.

Take `CNC(=O)N1CCc2c(-c3cc(OC)c(CN4CCC(C(N5CCC6(CC5)CC(Oc5ccc7c(c5)C(=O)N(C5CCC(=O)NC5=O)C7)C6)C(F)(F)F)CC4)c(OC)c3)cn(C)c(=O)c2C1` (centres unmarked) [Compound D345]: the 50% inhibitory concentration (IC50) was below 10 nM.

The compound `CNC(=O)N1CCc2c(-c3cc(OC)c(CN4CCN(CCC5CCN(c6ccc7c(c6)C(=O)N(C6CCC(=O)NC6=O)C7)CC5(F)F)CC4)c(OC)c3)cn(C)c(=O)c2C1` (centres unmarked) [Compound D346] returned an IC50 below 10 nM.

With `CNC(=O)N1CCc2c(-c3cc(OC)c(CN4CCC(CN5CCC6(CC5)CC(Oc5ccc7c(c5)C(=O)N(C5CCC(=O)NC5=O)C7=O)C6)CC4)c(OC)c3)cn(CF)c(=O)c2C1` (centres unmarked) [Compound D347], the IC50 is below 10 nM.

On to `COc1cc(-c2cn(C)c(=O)c3c2CCC3)cc(OC)c1CN1CCN(CCC2CCN(c3ccc4c(c3)C(=O)N(C3CCC(=O)NC3=O)C4)CC2)CC1` (centres unmarked) [Compound D348], for which the 50% inhibitory concentration (IC50) is below 10 nM.

`COc1cc(-c2cn(C)c(=O)c3c2CN(C(=O)F)CC3)cc(OC)c1CN1CC(CN2CCC3(CC2)CN(c2ccc4c(c2)C(=O)N(C2CCC(=O)NC2=O)C4)C3)C1` (centres unmarked) [Compound D349] returned an IC50 of at least 10 nM.

Regarding `COc1cc(-c2cn(C)c(=O)c3c2NCC3)cc(OC)c1CN1CC(CN2CCC3(CC2)CN(c2ccc4c(c2)C(=O)N(C2CCC(=O)NC2=O)C4)C3)C1` (centres unmarked) [Compound D350], the IC50 was below 10 nM.

Consider `COc1cc(-c2cn(C)c(=O)c3c2CCCN3)cc(OC)c1CN1CCC2(CC1)CN(c1ccc3c(c1)C(=O)N(C1CCC(=O)NC1=O)C3=O)C2` (centres unmarked) [Compound D351], for which the half-inhibitory concentration (IC50) was at least 10 nM.

`COc1cc(-c2cn(C)c(=O)c3c2N(C)CC3)cc(OC)c1CN1CC(CN2CCC3(CC2)CN(c2ccc4c(c2)C(=O)N(C2CCC(=O)NC2=O)C4)C3)C1` (centres unmarked) [Compound D352] returned a half-inhibitory concentration (IC50) of at least 10 nM.

Consider `COc1cc(-c2cn(C)c(=O)c3c2CCC3)cc(OC)c1CN1CCC(CN2CCC3(CC2)CN(c2ccc4c(c2)C(=O)N(C2CCC(=O)NC2=O)C4)C3)CC1` (centres unmarked) [Compound D353], for which the IC50 is below 10 nM.

Take `COc1cc(-c2cn(C)c(=O)c3c2CCC(=O)N3)cc(OC)c1CN1CCC(CN2CCC3(CC2)CC(Oc2ccc4c(c2)CN(C2CCC(=O)NC2=O)C4=O)C3)CC1` (centres unmarked) [Compound D354]: the concentration for half-maximal inhibition (IC50) was below 10 nM.
